Common to all, as to experiment: relative viability (nuclei count vs DMSO), 5 days (fraction); higher = more cells survive
Compound in experiment [1]: C1=CC2=C(C=C(C(=C2N=C1)O)N=NC3=CC4=C(C=C3)C=C(C=C4)S(=O)(=O)O)S(=O)(=O)O + CCNC(=O)c1noc(-c2cc(C(C)C)c(O)cc2O)c1-c1ccc(CN2CCOCC2)cc1 [Luminespib] (partner 0.01 µM)
The procedure, abridged: (§1)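 One day after seeding in 1536-well plates, lung cancer cell lines were dosed by pin tool. Dosing was either single-drug or a fixed anchor-drug dose plus five library-drug doses (not always all listed) in √10 steps. After 5 days, nuclei were stained in one fix-and-stain step and counted on 4× images, and relative viability is the nuclei count of treated wells over that of vehicle wells, given as the median of duplicate plates.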

Compound in experiment [2]: C1=CC2=C(C=C(C(=C2N=C1)O)N=NC3=CC4=C(C=C3)C=C(C=C4)S(=O)(=O)O)S(=O)(=O)O + C[C@@H](Oc1cc(-c2cnn(C3CCNCC3)c2)cnc1N)c1c(Cl)ccc(F)c1Cl [Crizotinib] (partner 1 µM)
The essentials:
as §1

Compound in experiment [3]: O=C(NC1CCNCC1)c1n[nH]cc1NC(=O)c1c(Cl)cccc1Cl [AT-7519] + COc1cccc2cc(-c3nc([C@H]4CC[C@H](C(=O)O)CC4)n4ncnc(N)c34)[nH]c12 [OSI-027] (partner 0.5 µM)
The procedure, abridged:
as §1

Compound in experiment [4]: C1=CC2=C(C=C(C(=C2N=C1)O)N=NC3=CC4=C(C=C3)C=C(C=C4)S(=O)(=O)O)S(=O)(=O)O + Nc1nc2[nH]cc(CCc3ccc(C(=O)N[C@@H](CCC(=O)O)C(=O)O)cc3)c2c(=O)[nH]1 [Pemetrexed] (partner 0.2 µM)
The procedure, abridged:
as §1

For PC-14, the relative viability in experiment [1] (first compound 0.08 µM) stood at 0.141; in experiment [1] (first compound 0.253 µM), 0.139; in experiment [1] (first compound 0.8 µM) it was 0.152; in experiment [1] (first compound 2.53 µM), 0.148; in experiment [1] (first compound 8 µM), 0.0819; in experiment [2] (first compound 0.08 µM), 0.944. Also, the relative viability in experiment [2] (first compound 0.253 µM) was 0.833; in experiment [2] (first compound 0.8 µM) it was 0.907; in experiment [2] (first compound 2.53 µM), 0.892; in experiment [2] (first compound 8 µM), 0.941; in experiment [3] (first compound 0.01 µM), 0.725; in experiment [3] (first compound 0.03162 µM), 0.701. Further, the relative viability was 0.691 in experiment [3] (first compound 0.3162 µM); 0.125 in experiment [3] (first compound 1 µM); 0.127 in experiment [4] (first compound 0.08 µM); 0.129 in experiment [4] (first compound 0.253 µM); 0.145 in experiment [4] (first compound 0.8 µM); 0.132 in experiment [4] (first compound 2.53 µM). In addition, the relative viability in experiment [4] (first compound 8 µM) was 0.11.

On to RERF-LC-KJ, for which the relative viability in experiment [1] (first compound 0.08 µM) stood at 1.38; in experiment [1] (first compound 0.253 µM) it was 1.18; in experiment [1] (first compound 0.8 µM), 1.18; in experiment [1] (first compound 2.53 µM) it was 1.37; in experiment [1] (first compound 8 µM), 1.38; in experiment [2] (first compound 0.08 µM), 0.828. Further, the relative viability in experiment [2] (first compound 0.253 µM) turned out to be 0.797; in experiment [2] (first compound 0.8 µM), 0.782; in experiment [2] (first compound 2.53 µM) it was 0.872; in experiment [2] (first compound 8 µM) it was 0.869; in experiment [3] (first compound 0.01 µM), 0.572; in experiment [3] (first compound 0.03162 µM), 0.53. The relative viability came out at 0.54 in experiment [3] (first compound 0.3162 µM); 0.25 in experiment [3] (first compound 1 µM); 0.488 in experiment [4] (first compound 0.08 µM); 0.483 in experiment [4] (first compound 0.253 µM); 0.464 in experiment [4] (first compound 0.8 µM); 0.463 in experiment [4] (first compound 2.53 µM). The relative viability in experiment [4] (first compound 8 µM) came out at 0.457.

Turning to SK-LU-1, the relative viability in experiment [1] (first compound 0.08 µM) amounted to 0.175; in experiment [1] (first compound 0.253 µM), 0.203; in experiment [1] (first compound 0.8 µM) it was 0.208; in experiment [1] (first compound 2.53 µM), 0.209; in experiment [1] (first compound 8 µM), 0.175; in experiment [2] (first compound 0.08 µM), 1. For the same cell line, the relative viability in experiment [2] (first compound 0.253 µM) was found to be 0.952; in experiment [2] (first compound 0.8 µM) it was 0.854; in experiment [2] (first compound 2.53 µM), 0.923; in experiment [2] (first compound 8 µM) it was 0.93; in experiment [3] (first compound 0.01 µM) it was 0.356; in experiment [3] (first compound 0.03162 µM) it was 0.315. The relative viability in experiment [3] (first compound 0.3162 µM) is 0.282; in experiment [3] (first compound 1 µM), 0.168; in experiment [4] (first compound 0.08 µM), 1.04; in experiment [4] (first compound 0.253 µM), 0.937; in experiment [4] (first compound 0.8 µM), 0.956; in experiment [4] (first compound 2.53 µM), 0.954. The relative viability in experiment [4] (first compound 8 µM) was 1.01.

In the case of SK-MES-1, the relative viability in experiment [1] (first compound 0.08 µM) is 0.786; in experiment [1] (first compound 0.253 µM), 0.818; in experiment [1] (first compound 0.8 µM) it was 0.735; in experiment [1] (first compound 2.53 µM), 0.662; in experiment [1] (first compound 8 µM), 0.783; in experiment [2] (first compound 0.08 µM) it was 0.96. The relative viability came out at 0.886 in experiment [2] (first compound 0.253 µM); 0.963 in experiment [2] (first compound 0.8 µM); 1 in experiment [2] (first compound 2.53 µM); 0.948 in experiment [2] (first compound 8 µM); 0.615 in experiment [3] (first compound 0.01 µM); 0.58 in experiment [3] (first compound 0.03162 µM). The relative viability in experiment [3] (first compound 0.3162 µM) amounted to 0.564; in experiment [3] (first compound 1 µM) it was 0.332; in experiment [4] (first compound 0.08 µM) it was 0.972; in experiment [4] (first compound 0.253 µM) it was 0.953; in experiment [4] (first compound 0.8 µM) it was 0.932; in experiment [4] (first compound 2.53 µM) it was 0.942. For the same cell line, in experiment [4] (first compound 8 µM), the relative viability stood at 0.882.

For the cell line SW 1573, the relative viability in experiment [1] (first compound 0.08 µM) turned out to be 0.174; in experiment [1] (first compound 0.253 µM) it was 0.598; in experiment [1] (first compound 0.8 µM), 0.268; in experiment [1] (first compound 2.53 µM) it was 0.372; in experiment [1] (first compound 8 µM), 0.216; in experiment [2] (first compound 0.08 µM), 0.842. For the same cell line, the relative viability in experiment [2] (first compound 0.253 µM) was found to be 0.78; in experiment [2] (first compound 0.8 µM) it was 0.836; in experiment [2] (first compound 2.53 µM) it was 0.85; in experiment [2] (first compound 8 µM), 0.742; in experiment [3] (first compound 0.01 µM), 0.604; in experiment [3] (first compound 0.03162 µM), 0.659. Also, the relative viability in experiment [3] (first compound 0.3162 µM) came out at 0.436; in experiment [3] (first compound 1 µM), 0.107; in experiment [4] (first compound 0.08 µM), 0.881; in experiment [4] (first compound 0.253 µM), 0.817; in experiment [4] (first compound 0.8 µM), 0.78; in experiment [4] (first compound 2.53 µM), 0.838. The relative viability in experiment [4] (first compound 8 µM) is 0.257.

With UMC-11, the relative viability in experiment [1] (first compound 0.08 µM) was 1.14; in experiment [1] (first compound 0.253 µM) it was 1.04; in experiment [1] (first compound 0.8 µM) it was 0.862; in experiment [1] (first compound 2.53 µM), 0.992; in experiment [1] (first compound 8 µM) it was 1.02; in experiment [2] (first compound 0.08 µM) it was 0.818. For the same cell line, the relative viability turned out to be 0.584 in experiment [2] (first compound 0.253 µM); 0.491 in experiment [2] (first compound 0.8 µM); 0.693 in experiment [2] (first compound 2.53 µM); 0.717 in experiment [2] (first compound 8 µM); 0.442 in experiment [3] (first compound 0.01 µM); 0.432 in experiment [3] (first compound 0.03162 µM). Moreover, the relative viability was 0.404 in experiment [3] (first compound 0.3162 µM); 0.27 in experiment [3] (first compound 1 µM); 0.754 in experiment [4] (first compound 0.08 µM); 0.853 in experiment [4] (first compound 0.253 µM); 0.783 in experiment [4] (first compound 0.8 µM); 0.717 in experiment [4] (first compound 2.53 µM). Besides, in experiment [4] (first compound 8 µM), the relative viability is 0.768.
